Results on two compounds are retold here after US8575216B2, “Method of treatment for acute myelogenous leukemia” (priority 2009, dated 2013).

A short description of data set [1]: CINJ TPA Phase 1 study, relapsed/refractory malignancies: clinical response and toxicity. It is filed as in vivo, human. An excerpt: 12-O-tetradecanoylphorbol-13-acetate (TPA), an activator of protein kinase C, is being developed as a therapeutic agent for patients with acute myelogenous leukemia (AML) because of its profound effects on intracellular signaling pathways, it's capacity to induce differentiation and/or apoptosis in cell lines, and preliminary clinical data from China indicating effectiveness in myeloid malignancies (Han Z T, Zhu X X, Yang R Y, Sun J Z, Tian G F, Liu X J et al. Effect of intravenous infusions of 12-O-tetradecanoylphorbol-13-acetate (TPA) in patients with myelocytic leukemia: preliminary studies on therapeutic efficacy and toxicity. Proc Natl Acad Sci USA 1998; 95(9):5357-5361). A recently completed Investigator-initiated, Phase I study at The Cancer Institute of New Jersey/Robert Wood Johnson Medical School/UMDNJ represented the only FDA-approved study to administer TPA to patients in the United States and provided a unique opportunity to study the in vivo effects of TPA in patients with relapsed/refractory malignancies for which no standard therapies exist. Thus far clinical evaluation of TPA as a single agent has documented clinical safety when administered on days 1-5 and 8-12.
The initial CINJ TPA Phase 1 study enrolled 35 patients [23 with relapsed/refractory AML, 2 with other myeloid malignancies (CML-blast crisis, myelodysplasia with excess blasts), 3 with Hodgkin's Disease, 3 with non-Hodgkin's lymphoma and 4 with solid tumors]. The majority of patients had relapsed/refractory AML. Our clinical results include one AML patient with stable disease for >5 months, who received 8 TPA infusions. In a second AML patient, a pronounced (5-fold) decline in the number of circulating blasts was seen following TPA administration. This decline in leukemic blasts persisted for 4 weeks; the patient eventually died from a fungal infection.

The next data set deals with ERK phosphorylation. As to the kind of experiment: Ex vivo ERK phosphorylation in clinical AML samples (Western analysis). It is filed as cell-based, human.
For data set [2] the following is noted: 5 patients, 0.125 mg/m^2, cited from earlier work.
The test system of data set [3] is primary AML cells. The data set can be described thus: Ex vivo cytotoxicity on primary AML cells (cell viability and apoptosis assays).
The conditions of data set [4]: AML patients, 48 h treatment with induction chemotherapy.
Source text: Clinical trial. […] The study was an open-label trial. […] Inclusion criteria included non-pregnant patients with an Eastern Cooperative Oncology Group performance status of 0 to 3, a bilirubin level more than twice the upper limits of normal, aspartate aminotransferase/alanine aminotransferase level more than thrice the upper limits of normal, and creatinine levels more than 1.5 times the upper limits of normal. Patients with current or recent gastrointestinal bleeding were excluded. […] Dexamethasone was administered at a dose of 10 mg p.o. every 6 h beginning at hour 0 and continuing until hour 48. […] Induction chemotherapy consisted of 3 days of idarubicin in combination with a 7-day continuous infusion of cytarabine. Some patients over the age of 60 received a reduced dose of idarubicin and the addition of etoposide (32).
For data set [5], the system named is primary AML cells.

SMILES strings stand for the structures. Where “and” joins values, the source holds several entries; their conditions need not be identical. Equal entries are not always repeated. Entries after “also recorded” stand apart in the source; their conditions may differ. Where two headings read alike, the source gives them in different places.

On to `CCCCCCCCCCCCCC(=O)O[C@@H]1[C@@H](C)[C@@]2(O)[C@@H](C=C(CO)C[C@]3(O)C(=O)C(C)=C[C@@H]23)[C@@H]2C(C)(C)[C@]12OC(C)=O` [TPA, 12-O-tetradecanoylphorbol-13-acetate], for which the “DLT's reported” value in data set [1] (CINJ TPA study) was “grade 3 dyspnea, grade 3 hypoxia and a grade 3 episode of hypotension”. In addition, the “Patients with grade III non-hematologic dose limiting toxicities (DLT)” value in data set [1] (last cohort, 0.188 mg/m^2 d1-5, 8-12) was 2 out of 3. Also, the “Maximum tolerated TPA dose as a single agent” value in data set [1] (on d1-5 and 8-12) was determined as 0.125 mg/m^2/d. Moreover, the “Duration of stable disease” value in data set [1] (one AML patient, 8 TPA infusions) was more than 5 months. Besides, in data set [1] (patient with relapsed and refractory Hodgkin's disease), the “Clinical response of chest wall mass” value is recorded as “partial remission”. Moreover, the “Persistence of decline in leukemic blasts” value in data set [1] (second AML patient) is 4 weeks. For the same compound, the “Decline in the number of circulating blasts” value in data set [1] (second AML patient, following TPA administration) amounted to 5 fold. Also, the ERK phosphorylation entry with ERK phosphorylation (all primary cultures analyzed by Western analysis, by 1 hour in culture) is “strongly induced”. Moreover, in the data set with ERK phosphorylation (ex vivo exposure of clinical AML samples), the “TPA concentration (as low as) giving detectable increases in ERK phosphorylation” value came to 0.032 nM. The “TPA level in blood, average” value is 1.75 ng/ml blood and 2.8 nM in data set [2] (immediately post-infusion); 0.93 ng/ml blood and 1.5 nM in data set [2] (one hour post infusion). For the same compound, the “Cytotoxic effects by TPA concentration” value in the data set with primary AML cells [3] (clinical AML samples ex vivo, 32 nM vs 3.2 nM, unpublished observations) is 32 nM is more cytotoxic than 3.2 nM. In addition, in the data set on primary AML cells [3] (small panel of clinical AML samples, subset of AML cases), the “Cytotoxic effects, cell viability and apoptosis assays” value is reported as “direct cytotoxic effects”.
Regarding `C[C@@H]1C[C@H]2[C@@H]3CCC4=CC(=O)C=C[C@]4(C)[C@@]3(F)[C@@H](O)C[C@]2(C)[C@@]1(O)C(=O)CO` [dexamethasone], the “Unusual untoward effects attributable to the agent” value in data set [4] is “did not detect any unusual untoward effects; also recorded: did not, detect any unusual untoward elects”. Moreover, the “Effect on TPA cytotoxicity” value in the data set on primary AML cells [5] is on record as “enhance TPA cytotoxicity”.
